# Data published in article PMC8297771 (PLoS Pathogens, 2021).
# “Also recorded” adds a separate entry of the source.
# Assays:
# [1] = target: T1, full-length IN (Human immunodeficiency virus type 1 group M subtype B, UniProt P12497); experiment: HTRF-based IN multimerization assay; assay type: biochemical, HIV-1
# T1 construct: between two full-length IN protein populations differentially labeled
# Method: To test the ability of STP0404 to induce higher-order multimerization of IN we employed homogeneous time-resolved fluorescence (HTRF)-based assay. Briefly, His-tagged and FLAG-tagged INs (each at 10 nM final concentration) were mixed in buffer containing 25 mM Tris, pH 7.4, 150 mM NaCl, 2 mM MgCl2, 0.1% Nonidet P-40 and 1 mg/ml BSA. This mixture was incubated with various concentrations of the test compounds for 3 hrs at room temperature. The detection is based on anti-His6-XL665 and anti-FLAG-EuCryptate antibodies (Cisbio, Inc., Bedford, MA) which were added to the reaction and incubated at room temperature for 3 hrs. The HTRF signal was recorded by PerkinElmer EnSpire multimode plate reader and OriginLab software was used to calculate the EC50 values.
# [2] = test system: HIV-GFP in LEDGF/p75 knockout Jurkat cell lines (1-F10 and 2-C10); experiment: HIV-1 inhibition in infecting LEDGF/p75 knockout cells; assay type: cell-based; conditions: 60 nM
# Method: To test for STP0404’s inhibitory effects during the late stage of HIV-1 life cycle such as the maturation step, we employed the “producing cells” setup. In T75 tissue culture flasks, 293T cells were pre-treated with and without STP0404 (0 and 60 nM) for 2 hrs prior to transfection with pD3-HIV (13 μg) and pVSV-g (6 μg), using 0.3 mg/ml polyethylenimine. After 24 hrs incubation at 37°C, the supernatant was removed and replaced with fresh media with and without STP0404 (0 and 60 nM). 48 hrs later, D3-HIV vector from each treatment group was concentrated from the collected supernatant via ultracentrifugation (22,000 rpm for 2 hrs). Following p24 quantification, using 96-well plates, similar amount of respective D3-HIV vector was used to transduce Jurkat cells in triplicates for 48 hrs. The cells were harvested and fixed with 3.7% formaldehyde before being analyzed for GFP expression using FACS (Miltenyi Biotec, VYB). Separately, the “infecting cells” setup was used to investigate the inhibitory effects of STP0404 against the early stages of HIV-1 life cycle such as the integration and transcription steps. […] All data were analyzed using GraphPad Prism (Version 9). Unpaired t tests were performed to determine the significance of the readings in respective experimental set up relative to the untreated controls. […]
# [3] = test system: HIV-1_89.6 particles produced from 293 T cells; experiment: TEM analysis of HIV-1 particle morphology; assay type: cell-based; conditions: viruses produced from treated 293T cells; 1 μM
# Method: 293T cells were transfected with plasmids containing proviral clones encoding WT HIV-1 89.6 using polyethylenimine (PEI). After 6 hrs, cells were rinsed with DPBS gently, and then cells were resuspended in a fresh media with or without the inhibitor (1 μM, final). At 96 hrs post-transfection, cell cultures were centrifuged (1,800 xg) and filtered through 0.45 μm filter to remove cells and any cell debris, and viruses were harvested by centrifugation at 100,000 xg for 1.5 hrs in the presence of TNE sucrose buffer (5% sucrose, final). The pellets were fixed in a buffer containing 0.1 M Na cacodylate at pH 7.4 and 2.5% Glutaraldehyde, and submitted to Emory Integrated Core Facilities for sectioning, followed by TEM. Virus pellets were dehydrated in a graduated ethanol series and embedded in Epon resin. Ultrathin sections were stained using uranyl acetate and observed under a transmission electron microscope (JEOL JEM-1400), equipped with Gatan CCD camera at the Emory Integrated Electron Microscopy Core. Total of approximately 1,000 virions each (with or without the inhibitor treatment) were captured in the images obtained for comparisons in virion morphology.
# [4] = test system: SIVmac239; experiment: In vitro efficacy test against SIVmac239 in CEMx174 cells (p27); assay type: cell-based, SIV; conditions: p27 assay
# Method: CEMx174 cells were infected with HIV-1 primary isolate 89.6 (From infectious clone p89.6, NIH AIDS Reagent Program) at approximately at 10% of cell population determined by FACS analyses. To determine antiviral activity during virus production, STP0404 was added at concentration in the range of 0.1 nM—10 μM during media exchange at 4 hrs post-infection. DMSO was used as a negative control. Cell-free supernatants were measured for p24 antigen production, 5 days post-infection. The anti-HIV-1 efficacy of the two enantiomers of STP0404 were also determined by using the same protocol. All assays were conducted in triplicates. […] For SIVmac239, CEMx174 cells were infected with viral supernatant containing SIVmac293 at 50,000 TCID50/mL (kind gift from Dr. G. Silvestri, Emory Yerkes National Primate Research Center) with 100 μL/10^6 cells at varying concentrations of STP0404, BI224436, and Raltegravir, and the same above protocol was followed except for that p27 capsid antigen content was measured daily for 5 days post infection.
# Supplementary file ppat.1009671.s004.tiff: S1 Fig In vitro efficacy tests of STP0404, BI224436 and Raltegravir against SIVmac239 in CEMx174 cell culture. CEMx174 cells were infected with SIVmac239 with various concentrations of STP0404, BI224436, and Raltegravir, and the viral production was determined by p27 assay at 5 days post infection. […]
# [5] = In vivo pharmacokinetics in beagle dogs; conditions: male, plasma, Dog
# Method: Study design: […]). Group 1 was dosed with STP0404 at 1 mg/kg by single intravenous administration. Groups 2 to 4 were dosed with STP0404 at 20, 40 and 80 mg/kg, respectively, by single oral administration. The vehicle used for IV study was DMSO: PEG400: […] Blood samples were collected at 0.0833, 0.25, 0.5, 1, 2, 4, 8, 12 (only for PO groups) and 24 hrs post-dose for Groups 1 to 4. STP0404 concentrations in plasma samples were determined by LC-MS/MS. Preclinical Dog pharmacokinetics study (Study no. 400751-2015020201-DPK): A total of 6 male Beagle dogs were divided into two groups (3 animals/group). Following single STP0404 2 mg/kg oral and intravenous administration to Beagle Dogs, STP0404 concentration was determined in plasma, and pharmacokinetic parameters were calculated. […] The concentrations of STP0404 in plasma were determined by using a LC/MS/MS method.
compound,measurement,setting,value
Cc1nc2c(c(C)c(C)n2Cc2cnn(C)c2)c(-c2ccc(Cl)cc2)c1[C@H](OC(C)(C)C)C(=O)O [STP0404],EC50,[1],147 ± 20 nM
same,infection of LEDGF/p75 knockout Jurkat T cells,[2],failed to significantly inhibit infection
same,localization of viral RNA genomes in virus particles (TEM),[3],viral RNA genomes outside of the capsid
same,inhibition of SIVmac239,[4],did not inhibit; also recorded: failed to inhibit
same,AUC,"[5]; iv, 2 mg/kg (i.v)",9.26 µM·h
same,half-life,"[5]; iv, 2 mg/kg (i.v)",6.11 h
same,AUC,"[5]; po, 2 mg/kg (p.o)",4.68 µM·h
same,Cmax,"[5]; po, 2 mg/kg (p.o)",3.98 µM
same,half-life,"[5]; po, 2 mg/kg (p.o)",6.9 h
same,bioavailability,"[5]; po, 2 mg/kg (p.o), read-out: Ft (oral bioavailability)",50.6%
